According to patent US6737383B1, “Herbicidal oxadiazolidines” (priority 1999, dated 2004):

Tests used:
cocklebur = assay: Test B pre/postemergence cocklebur; type: in vivo, Xanthium strumarium
Procedure, shortened: (§1)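 Herbicidal effect was estimated by eye on a ten-point control scale after plants spent twelve to sixteen days in a greenhouse following soil or foliar treatment. Foliar sprays targeted plants at one to four leaves; all doses were formulated in a non-phytotoxic solvent with surfactant.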

giant foxtail = assay: Test B pre/postemergence giant foxtail; type: in vivo, Setaria faberii
Procedure, shortened: as §1

morningglory = assay: Test B pre/postemergence morningglory; type: in vivo, Ipomoea hederacea
Procedure, shortened: as §1

bamyardgrass = assay: Test B flood test barnyardgrass; type: in vivo, Echinochloa crus-galli
Procedure, shortened: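 Each value is a visual injury score relative to controls, with 10 meaning complete control and 0 no effect. Evaluation took place twelve to sixteen days after the 2-leaf-stage plants were treated and kept in the greenhouse.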

[1] = Preemergence, Rate 62 g/ha, scale of 0 to 10 where 0 is no effect and 10 is complete control
[2] = Preemergence, Rate 250 g/ha, scale of 0 to 10 where 0 is no effect and 10 is complete control
[3] = Preemergence, Rate 500 g/ha, scale of 0 to 10 where 0 is no effect and 10 is complete control
[4] = Rate 62 g/ha, Postemergence, scale of 0 to 10 where 0 is no effect and 10 is complete control
[5] = Rate 125 g/ha, Postemergence, scale 0 to 10
[6] = Rate 125 g/ha, Preemergence, scale of 0 to 10 where 0 is no effect and 10 is complete control
[7] = Rate 500 g/ha, Postemergence, scale 0 to 10, 0 no effect, 10 complete control
[8] = Rate 62 g/ha, headed Pre-emergence (flood test species), scale 0 to 10 (0 no effect, 10 complete control)
[9] = Rate 125 g/ha, Pre-emergence, flood test species, scale 0 to 10 where 0 is no effect and 10 is complete control
[10] = Rate 250 g/ha, Pre-emergence, flood-test species, scale 0 to 10, 0 is no effect, 10 is complete control
[11] = Rate 500 g/ha, Pre-emergence, flood test species, scale 0 to 10 (0 no effect, 10 complete control)

Compound	Cocklebur plant response rating (cocklebur; [1])	Cocklebur plant response rating (cocklebur; [2])	Plant response rating, Cocklebur (cocklebur; [3])	Cocklebur plant response rating (cocklebur; [4])	Cocklebur plant response rating (cocklebur; [5])	Cocklebur plant response rating (cocklebur; [6])	Plant response rating (0 to 10; 0 is no effect, 10 is complete control), Cocklebur (cocklebur; Rate 250 g/ha, Postemergence)	Cocklebur plant response rating (cocklebur; [7])	Giant foxtail plant response rating (giant foxtail; [1])	Giant foxtail plant response rating (giant foxtail; [2])	Plant response rating, Giant foxtail (giant foxtail; [3])	Giant foxtail plant response rating (giant foxtail; [4])	Giant foxtail plant response rating (giant foxtail; [6])	Plant response rating (0 to 10; 0 is no effect, 10 is complete control), Giant foxtail (giant foxtail; Rate 250 g/ha, Postemergence)	Giant foxtail plant response rating (giant foxtail; [7])	Morningglory plant response rating (morningglory; [1])	Morningglory plant response rating (morningglory; [2])	Plant response rating, Morningglory (morningglory; [3])	Morningglory plant response rating (morningglory; [4])	Morningglory plant response rating (morningglory; [6])	other results
CC(C)N(C(=O)n1oc(=O)n(CC2(C)COC2)c1=O)c1ccc(F)cc1 [Compound 226]	0	0	0	0	0	0	0	2	9	10	10	2	10	7	7	0	7	8	5	0	Giant foxtail plant response rating (giant foxtail; [5]): 7; Morningglory plant response rating (morningglory; [5]): 7; Plant response rating (0 to 10; 0 is no effect, 10 is complete control), Morningglory (morningglory; Rate 250 g/ha, Postemergence): 7; Morningglory plant response rating (morningglory; [7]): 7; Barnyardgrass plant response rating (bamyardgrass; [8]): 0; Barnyardgrass plant response rating (bamyardgrass; [9]): 0; Barnyardgrass plant response rating (bamyardgrass; [10]): 0; Barnyardgrass plant response rating (bamyardgrass; [11]): 0
Cc1ccccc1-n1c(=O)on(C(=O)N(c2ccc(N(C)C)cc2)C(C)C)c1=O [Compound 237]	0	0	0	0	0	0	0	0	0	4	4	0	0	0	0	0	0	2	2	0	Giant foxtail plant response rating (giant foxtail; [5]): 0; Morningglory plant response rating (morningglory; [5]): 2; Plant response rating (0 to 10; 0 is no effect, 10 is complete control), Morningglory (morningglory; Rate 250 g/ha, Postemergence): 3; Morningglory plant response rating (morningglory; [7]): 6; Barnyardgrass plant response rating (bamyardgrass; [8]): 0; Barnyardgrass plant response rating (bamyardgrass; [9]): 0; Barnyardgrass plant response rating (bamyardgrass; [10]): 0; Barnyardgrass plant response rating (bamyardgrass; [11]): 0
Cc1ccccc1-n1c(=O)on(C(=O)N(c2ccc(F)cc2)C(C)C2CC2)c1=O (stereo not shown) [Compound 240]	0	0	0	0	1	0	1	1	5	10	10	0	5	0	2	0	0	0	5	0	Plant response rating (0 to 10; 0 is no effect, 10 is complete control), Morningglory (morningglory; Rate 250 g/ha, Postemergence): 10; Morningglory plant response rating (morningglory; [7]): 10; Barnyardgrass plant response rating (bamyardgrass; [8]): 0; Barnyardgrass plant response rating (bamyardgrass; [9]): 0; Barnyardgrass plant response rating (bamyardgrass; [10]): 0; Barnyardgrass plant response rating (bamyardgrass; [11]): 0
